Assay results as given in ChEMBL document CHEMBL1833806, “Mapping the intestinal alpha-glucogenic enzyme specificities of starch digesting maltase-glucoamylase and sucrase-isomaltase” (Bioorg Med Chem, 2011).
pKi: −log10 of the molar value.

What was measured:
[1] = Inhibition of human ntMGAM expressed in Drosophila S2 cells assessed as amount of glucose produced using maltose as a substrate after 45 mins by glucose oxidase assay; assay type: cell-based
[2] = Inhibition of mouse his-tagged ctMGAM-N20 expressed in Sf9 cells assessed as amount of glucose produced using maltose as a substrate after 45 mins by glucose oxidase assay
[3] = Inhibition of human ntSI expressed in Drosophila S2 cells assessed as amount of glucose produced using maltose as a substrate after 45 mins by glucose oxidase assay; assay type: cell-based
[4] = Inhibition of mouse his-tagged ctMGAM-N2 expressed in Sf9 cells assessed as amount of glucose produced using maltose as a substrate after 45 mins by glucose oxidase assay
[5] = Selectivity ratio of Ki for human ntMGAM to Ki for mouse ctMGAM-N20
[6] = Selectivity ratio of Ki for human ntSI to Ki for mouse ctSI
[7] = Inhibition of mouse his-tagged ctSI expressed in Sf9 cells assessed as amount of glucose produced using maltose as a substrate after 45 mins by glucose oxidase assay
[8] = Selectivity ratio of Ki for human ntMGAM to Ki for mouse ctSI
Mus musculus [9] = species on record: Mus musculus; assay: Selectivity ratio of Ki for mouse ctSI to Ki for mouse ctMGAM-N20
Mus musculus [10] = species on record: Mus musculus; assay: Selectivity ratio of Ki for mouse ctSI to Ki for mouse ctMGAM-N2
[11] = Selectivity ratio of Ki for human ntMGAM to Ki for mouse ctMGAM-N2
[12] = Selectivity ratio of Ki for human ntSI to Ki for mouse ctMGAM-N20
[13] = Selectivity ratio of Ki for human ntSI to Ki for mouse ctMGAM-N2
Mus musculus [14] = species on record: Mus musculus; assay: Selectivity ratio of Ki for mouse ctMGAM-N20 to Ki for mouse ctMGAM-N2
Mus musculus [15] = species on record: Mus musculus; assay: Ratio of Km for mouse ctMGAM-N20 to Km for mouse ctMGAM-N2
[16] = Activity of human ntSI expressed in Drosophila S2 cells assessed as amount of glucose produced after 45 mins by glucose oxidase assay; assay type: cell-based
[17] = Activity of mouse his-tagged ctMGAM-N20 expressed in Sf9 cells assessed as amount of glucose produced using maltose as a substrate after 45 mins by glucose oxidase assay
[18] = Activity of human ntMGAM expressed in Drosophila S2 cells assessed as amount of glucose produced after 45 mins by glucose oxidase assay; assay type: cell-based
[19] = Activity of mouse his-tagged ctMGAM-N2 expressed in Sf9 cells assessed as amount of glucose produced using maltose as a substrate after 45 mins by glucose oxidase assay
[20] = Activity of mouse his-tagged ctSI expressed in Sf9 cells assessed as amount of glucose produced after 45 mins by glucose oxidase assay
[21] = Activity of mouse his-tagged ctMGAM-N2 expressed in Sf9 cells assessed as amount of glucose produced after 45 mins by glucose oxidase assay
[22] = Activity of mouse his-tagged ctMGAM-N20 expressed in Sf9 cells assessed as amount of glucose produced after 45 mins by glucose oxidase assay
Homo sapiens = species on record: Homo sapiens; assay: Selectivity ratio of Ki for human ntMGAM to Ki for human ntSI
Mus musculus [23] = species on record: Mus musculus; assay: Selectivity ratio of Ki for mouse ctMGAM-N2 to Ki for mouse ctSI
Mus musculus [24] = species on record: Mus musculus; assay: Selectivity ratio of Ki for mouse ctMGAM-N2 to Ki for mouse ctMGAM-N20

Ratio Ki [5]	Ratio Ki [8]	Ratio Ki [11]	Structure (SMILES)	pKi [1]	pKi [2]	pKi [3]	pKi [4]	pKi [7]	other results
4	4	4	OCCN1C[C@H](O)[C@@H](O)[C@H](O)[C@H]1CO [MIGLITOL]	6.00	6.64	6.83	6.68	6.89	Ratio Ki (Homo sapiens): 4
5	5		O=S(=O)([O-])O[C@@H](CO)[C@H](O)C[S@+]1C[C@@H](O)[C@H](O)[C@H]1CO [SALACINOL]		7.24	6.56	6.67	7.33	Ratio Ki (Mus musculus [23]): 5; Ratio Ki [6]: 5; Ratio Ki [12]: 5; Ratio Ki (Mus musculus [24]): 4

Second part, the molecule before the results:

Structure (SMILES)	Ratio Ki [5]	Ratio Ki [8]	Ratio Ki [11]	pKi [1]	pKi [2]	pKi [3]	pKi [4]	pKi [7]	other results
C[C@H]1O[C@H](O[C@H]2[C@H](O)[C@@H](O)[C@@H](O[C@H]3[C@H](O)[C@@H](O)C(O)O[C@@H]3CO)O[C@@H]2CO)[C@H](O)[C@@H](O)[C@@H]1N[C@H]1C=C(CO)[C@@H](O)[C@H](O)[C@H]1O (stereo not given in full) [ACARBOSE]	1000	100	1000	4.21	7.55	4.85	8.05	6.61	Ratio Ki [6]: 100; Ratio Ki (Mus musculus [9]): 1000; Ratio Ki (Mus musculus [10]): 1000; Ratio Ki [12]: 1000; Ratio Ki [13]: 1000
O=S(=O)([O-])O[C@@H](CO)[C@H](O)C[Se+]1C[C@@H](O)[C@H](O)[C@H]1CO (stereo not given in full) [BLINTOL]			10	6.31	7.89	6.80	7.74	7.54	Ratio Ki (Mus musculus [10]): 10; Ratio Ki (Mus musculus [14]): 10; Ratio Ki [13]: 10
OC[C@@H]1[C@@H](O)[C@H](O)C[S+]1C[C@@H](O)[C@@H](O)[C@H](O)[C@H](O)[C@@H](O)CO (stereo not given in full) [DE-O-SULFONATED KOTALANOL]				7.52	7.11	7.92	7.59	7.59	
O=S(=O)([O-])O[C@@H]([C@H](O)[C@H](O)[C@@H](O)CO)[C@H](O)C[S+]1C[C@@H](O)[C@H](O)[C@H]1CO (stereo not given in full) [KOTALANOL]				6.72	7.04	6.22	7.19	7.38	
OC[C@H]1O[C@H](O[C@H]2[C@H](O)[C@@H](O)[C@H](O)O[C@@H]2CO)[C@H](O)[C@@H](O)[C@@H]1O [MALTOSE]									Ratio (Mus musculus [15]): 4; Km [16]: 7100 µM; Km [7]: 2500 µM; Km [17]: 1910 µM; Km [18]: 4300 µM; Km [19]: 1590 µM; Km [20]: 2500 µM; Km [21]: 1590 µM; Km [22]: 1910 µM
